Several values for one entry are separate records, joined by “and”; a condition that tells them apart may be missing. Identical values can stand only once.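 Five concentrations, 48 hours, 96-well plates. GI50 is the concentration that inhibits growth by half. TGI denotes the concentration required for complete inhibition of growth.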
What was measured:
Experiment in all cases: NCI tumour cell line growth inhibition, 48 h
[1] = system: PC-3 prostate
[2] = system: OVCAR-5 ovarian
[3] = system: DMS 273 small cell lung
[4] = system: RPMI-8226 leukemia
[5] = system: COLO 205 colon
[6] = system: NCI-H522 lung
[7] = system: SF-295 CNS
[8] = system: SF-539 CNS
[9] = system: MDA-N
[10] = system: SK-MEL-2 melanoma

Structure (SMILES)	GI50 [1] [nM]	TGI [1]	GI50 [2] [nM]	TGI [2]	GI50 [3]	TGI [3]	GI50 [4]	TGI [4]	GI50 [5]	TGI [5]	GI50 [6]	TGI [6] [nM]	GI50 [7] [nM]	TGI [7]	GI50 [8] [nM]	TGI [8] [nM]	GI50 [9] [nM]	TGI [9] [nM]	GI50 [10] [nM]	TGI [10] [nM]
CCN(CC)C(=S)[S][Bi]([S]C(=S)N(CC)CC)[S]C(=S)N(CC)CC	263	1040 nM	539	1070 nM	56 nM	221 nM	230 nM	2150 nM	< 20.8 nM	131 nM	15.7 nM	33.2	1730	3160 nM	195	436	728	2040	300	774
CNCCN=c1ccc2c3c1c(O)c1c(O)ccc(=O)c1c3[nH]n2CCNCCO	410	6660 nM and 4900 nM	900	3360 nM and 11500 nM	53 nM and 97.8 nM	1590 nM and 336 nM	129 nM and 294 nM	5040 nM and 12400 nM	398 nM and 560 nM	4410 nM and 4590 nM	194 nM and 627 nM		36.9	794 nM and 811 nM	57.6	1320		2700		
O=NN(CCCl)C(=O)NC1CCC(CC2CCC(NC(=O)N(CCCl)N=O)CC2)CC1 (configuration not stated)				> 100000 nM		85500 nM		> 77800 nM		> 88100 nM		48300		> 79200 nM		25000				> 100000
O=C(NC(=O)c1ccccc1[N+](=O)[O-])Nc1ccc(Oc2ncc(Cl)cn2)c(C(F)(F)F)c1		65.8 nM		80400 nM		669 nM		> 67900 nM		109 nM		160		> 4640 nM		489				
CCCCCCCCCCCCCCCCCC(=O)Nc1ccn(C2OC(CO)C(O)C2O)c(=O)n1 (configuration not stated)		> 100000 nM		> 100000 nM		> 100000 nM		> 100000 nM		> 100000 nM		75400		> 100000 nM		> 100000		> 100000		> 100000

Reference: PubChem BioAssay (NCI)
